Data published in ChEMBL document CHEMBL4706484, “Apigenin-rivastigmine hybrids as multi-target-directed liagnds for the treatment of Alzheimer's disease” (Eur J Med Chem, 2020).
Active and inactive are the calls of the source. The rule behind the calls is not given here.

Experiments:
Acetylcholinesterase [1] = molecular target: T1, Acetylcholinesterase (Rattus norvegicus, UniProt P37136); assay: Inhibition of rat cortex AChE using acetylthiocholine iodide as substrate measured after 15 mins by Ellman's method; assay type: tissue-based
T1 sequence (P37136 whole entry): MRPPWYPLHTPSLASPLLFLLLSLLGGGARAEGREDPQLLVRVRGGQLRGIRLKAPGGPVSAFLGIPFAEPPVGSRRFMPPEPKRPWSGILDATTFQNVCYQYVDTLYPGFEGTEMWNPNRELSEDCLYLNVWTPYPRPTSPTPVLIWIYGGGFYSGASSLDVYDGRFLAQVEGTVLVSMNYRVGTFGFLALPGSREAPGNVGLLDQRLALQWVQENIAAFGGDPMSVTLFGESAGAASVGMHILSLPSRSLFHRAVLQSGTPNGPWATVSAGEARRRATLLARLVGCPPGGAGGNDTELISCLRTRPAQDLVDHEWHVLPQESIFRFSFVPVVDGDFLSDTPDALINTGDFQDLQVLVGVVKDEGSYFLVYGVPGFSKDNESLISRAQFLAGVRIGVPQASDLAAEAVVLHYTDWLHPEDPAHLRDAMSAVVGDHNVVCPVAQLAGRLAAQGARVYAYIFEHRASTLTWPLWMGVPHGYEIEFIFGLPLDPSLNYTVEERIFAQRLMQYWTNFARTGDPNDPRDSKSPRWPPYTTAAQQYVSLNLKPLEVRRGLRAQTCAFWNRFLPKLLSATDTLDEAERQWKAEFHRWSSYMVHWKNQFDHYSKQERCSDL

[2] = Antioxidant activity of compound assessed as trolox equivalent antioxidant capacity by ORAC-FL assay; assay type: functional
[3] = molecular target: Amyloid-beta precursor protein (Homo sapiens) (UniProt P05067); assay: Inhibition of self-induced amyloid beta (1 to 42) (unknown origin) aggregation at 25 uM by ThT fluorescence assay relative to control
Chain of Amyloid-beta precursor protein (Homo sapiens) (P05067 whole entry): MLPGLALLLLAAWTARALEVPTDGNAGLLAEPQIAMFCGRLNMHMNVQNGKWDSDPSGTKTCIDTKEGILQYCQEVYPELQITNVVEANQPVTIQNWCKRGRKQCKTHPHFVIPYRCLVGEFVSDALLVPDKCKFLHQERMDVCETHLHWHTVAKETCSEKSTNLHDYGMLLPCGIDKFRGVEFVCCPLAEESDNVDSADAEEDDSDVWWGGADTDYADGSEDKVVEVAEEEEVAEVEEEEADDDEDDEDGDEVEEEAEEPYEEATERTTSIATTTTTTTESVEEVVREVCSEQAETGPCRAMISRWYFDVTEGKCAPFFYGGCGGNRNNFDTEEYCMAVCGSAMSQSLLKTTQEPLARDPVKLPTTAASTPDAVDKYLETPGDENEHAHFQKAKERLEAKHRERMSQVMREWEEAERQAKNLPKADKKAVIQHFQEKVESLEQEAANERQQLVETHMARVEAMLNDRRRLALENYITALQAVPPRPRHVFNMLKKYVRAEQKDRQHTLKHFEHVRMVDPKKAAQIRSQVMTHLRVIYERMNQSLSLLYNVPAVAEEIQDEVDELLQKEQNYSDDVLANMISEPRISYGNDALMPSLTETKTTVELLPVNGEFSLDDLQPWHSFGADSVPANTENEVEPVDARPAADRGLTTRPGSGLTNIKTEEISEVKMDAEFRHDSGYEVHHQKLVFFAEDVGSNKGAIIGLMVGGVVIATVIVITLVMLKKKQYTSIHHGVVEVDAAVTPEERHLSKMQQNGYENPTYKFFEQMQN

Butyrylcholinesterase = Butyrylcholinesterase (Rattus norvegicus, UniProt Q9JKC1); assay: Inhibition of rat serum BChE using acetylthiocholine iodide as substrate measured after 15 mins by Ellman's method; assay type: cell-free
Chain of Butyrylcholinesterase (Q9JKC1 whole entry): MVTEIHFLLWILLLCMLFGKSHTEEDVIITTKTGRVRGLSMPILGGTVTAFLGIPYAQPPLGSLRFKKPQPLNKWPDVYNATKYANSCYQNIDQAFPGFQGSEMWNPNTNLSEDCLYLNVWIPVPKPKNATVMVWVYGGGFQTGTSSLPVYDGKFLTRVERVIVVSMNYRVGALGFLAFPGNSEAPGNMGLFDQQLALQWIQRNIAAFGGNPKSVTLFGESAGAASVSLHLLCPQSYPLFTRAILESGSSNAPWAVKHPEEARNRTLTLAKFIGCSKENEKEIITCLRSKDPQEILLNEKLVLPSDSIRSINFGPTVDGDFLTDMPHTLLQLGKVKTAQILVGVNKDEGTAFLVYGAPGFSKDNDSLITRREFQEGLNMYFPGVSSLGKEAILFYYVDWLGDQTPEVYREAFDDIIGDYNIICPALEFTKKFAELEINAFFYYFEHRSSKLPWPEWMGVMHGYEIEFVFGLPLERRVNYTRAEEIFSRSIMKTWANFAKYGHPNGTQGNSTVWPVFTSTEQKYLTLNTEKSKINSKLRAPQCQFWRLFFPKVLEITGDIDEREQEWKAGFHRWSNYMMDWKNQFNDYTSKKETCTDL

Acetylcholinesterase [4] = molecular target: T2, Acetylcholinesterase (Homo sapiens, UniProt P22303); assay: Inhibition of human erythrocytes AChE using acetylthiocholine iodide as substrate measured after 15 mins by Ellman's method; assay type: tissue-based, Erythrocyte
T2 sequence (P22303 whole entry): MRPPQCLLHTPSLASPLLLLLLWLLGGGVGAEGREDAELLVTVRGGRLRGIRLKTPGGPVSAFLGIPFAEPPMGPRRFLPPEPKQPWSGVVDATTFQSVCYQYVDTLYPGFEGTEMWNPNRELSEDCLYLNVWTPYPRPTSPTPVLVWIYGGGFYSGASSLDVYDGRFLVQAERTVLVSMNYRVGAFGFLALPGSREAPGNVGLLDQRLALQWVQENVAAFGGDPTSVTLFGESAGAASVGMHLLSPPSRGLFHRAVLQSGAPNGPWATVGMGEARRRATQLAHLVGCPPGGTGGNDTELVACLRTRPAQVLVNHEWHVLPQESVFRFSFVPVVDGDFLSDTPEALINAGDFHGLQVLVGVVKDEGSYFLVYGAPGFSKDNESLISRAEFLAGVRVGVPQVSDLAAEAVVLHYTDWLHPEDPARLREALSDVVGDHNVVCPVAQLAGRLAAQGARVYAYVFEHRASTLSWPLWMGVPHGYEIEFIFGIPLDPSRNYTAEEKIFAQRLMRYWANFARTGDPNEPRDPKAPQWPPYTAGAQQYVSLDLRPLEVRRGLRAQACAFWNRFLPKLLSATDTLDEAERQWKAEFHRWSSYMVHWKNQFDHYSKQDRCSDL

Cholinesterase [5] = molecular target: T3, Cholinesterase (Homo sapiens, UniProt P06276); assay: Inhibition of human serum BChE using acetylthiocholine iodide as substrate measured after 15 mins by Ellman's method; assay type: cell-free
T3 sequence (P06276 whole entry): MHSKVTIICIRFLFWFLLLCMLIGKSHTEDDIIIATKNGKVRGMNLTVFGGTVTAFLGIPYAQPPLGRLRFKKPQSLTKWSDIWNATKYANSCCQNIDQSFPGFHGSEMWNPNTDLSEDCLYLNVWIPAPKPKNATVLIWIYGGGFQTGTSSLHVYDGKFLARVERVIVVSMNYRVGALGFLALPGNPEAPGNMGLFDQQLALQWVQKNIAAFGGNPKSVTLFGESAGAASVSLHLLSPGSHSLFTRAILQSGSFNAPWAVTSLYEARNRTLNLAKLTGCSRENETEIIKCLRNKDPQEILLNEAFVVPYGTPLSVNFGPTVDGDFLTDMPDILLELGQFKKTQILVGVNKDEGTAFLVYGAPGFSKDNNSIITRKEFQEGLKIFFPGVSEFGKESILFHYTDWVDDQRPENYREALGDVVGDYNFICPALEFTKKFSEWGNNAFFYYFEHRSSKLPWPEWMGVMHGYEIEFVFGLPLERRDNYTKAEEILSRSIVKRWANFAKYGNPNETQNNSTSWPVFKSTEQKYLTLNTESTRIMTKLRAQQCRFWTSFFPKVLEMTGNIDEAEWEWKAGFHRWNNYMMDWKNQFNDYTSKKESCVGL

[6] = Permeability of the compound in PBS/EtOH (70:30) at 100 ug/ml by PAMPA-BBB assay; assay type: ADME; details: dose 100 µg/ml, read-out: permeability
[7] = molecular target: Amyloid-beta precursor protein (Homo sapiens) (UniProt P05067); assay: Disaggregation of self-induced amyloid beta (1 to 42) (unknown origin) preformed fibrils at 25 uM measured after 48 hrs by TEM analysis
[8] = Cytotoxicity against human L02 cells assessed as cell viability at 6.25 uM measured after 72 hrs by MTT assay relative to control; assay type: cell-based; details: read-out: Activity
[9] = Cytotoxicity against human L02 cells assessed as cell viability at 12.5 uM measured after 72 hrs by MTT assay relative to control; assay type: cell-based; details: read-out: Activity
[10] = Metal chelating activity assessed as Zn2+-compound complex formation at 37.5 uM in presence of 37.5 uM ZnCl2 by UV-Vis spectrophotometric analysis
[11] = Metal chelating activity assessed as Al3+-compound complex formation at 37.5 uM in presence of 37.5 uM AlCl3 by UV-Vis spectrophotometric analysis
[12] = Drug metabolism in rat intestine assessed as metabolite formation by UPLC-MS/MS analysis; assay type: ADME, tissue-based
[13] = molecular target: Amyloid-beta precursor protein (Homo sapiens) (UniProt P05067); assay: Inhibition of self-induced amyloid beta (1 to 42) (unknown origin) aggregation at 25 uM measured after 24 hrs by TEM analysis
[14] = molecular target: Amyloid-beta precursor protein (Homo sapiens) (UniProt P05067); assay: Disaggregation of self-induced amyloid beta (1 to 42) (unknown origin) preformed fibrils at 25 uM by ThT fluorescence assay relative to control
[15] = Metal chelating activity assessed as Fe2+-compound complex formation at 37.5 uM in presence of 37.5 uM FeSO4 by UV-Vis spectrophotometric analysis
[16] = Cytotoxicity against human L02 cells assessed as cell viability at 50 uM measured after 72 hrs by MTT assay relative to control; assay type: cell-based; details: read-out: Activity
L02 = assay: Hepatoprotective activity H2O2-induced cell injury in human L02 cells assessed as cell viability at 10 uM measured after 48 hrs by MTT assay (reference value: 56.89 %); assay type: functional; details: read-out: Activity
[17] = Cytotoxicity against human L02 cells assessed as cell viability at 25 uM measured after 72 hrs by MTT assay relative to control; assay type: cell-based; details: read-out: Activity
[18] = Drug metabolism in rat liver microsomes assessed as metabolite formation by UPLC-MS/MS analysis; assay type: ADME, Microsome
[19] = Metal chelating activity assessed as Cu2+-compound complex formation at 37.5 uM in presence of 37.5 uM CuCl2 by UV-Vis spectroscopic analysis
[20] = Drug metabolism in human liver microsomes assessed as metabolite formation by UPLC-MS/MS analysis; assay type: ADME, Microsome
PC-12 [21] = assay: Cytotoxicity against rat PC-12 cells assessed as reduction in cell viability <= 100 uM measured after 48 hrs by MTT assay; assay type: cell-based; details: pc-12, 48 h
Cholinesterase [22] = molecular target: T3, Cholinesterase; assay: Pseudo-irreversible inhibition of human serum BChE assessed as enzyme recovery activity at 0.1 times IC50 measured immediately using diluted compound; assay type: cell-free; set-up: scale not given: the % may be the effect or the level left
Mus musculus [23] = assay: Cognitive enhancing effect in scopolamine-induced Kunming mouse model of memory impairment assessed as effect on total arm entries at 6 mg/kg by Y-maze test; assay type: functional, organism-based
Mus musculus [24] = assay: Reversal of scopolamine-induced Kunming mouse model of memory impairment assessed as spontaneous alteration at 6 mg/kg by Y-maze test (reference value: 41.6 %); assay type: functional
Acetylcholinesterase [25] = molecular target: T2, Acetylcholinesterase; assay: Pseudo-irreversible inhibition of human erythrocytes AChE assessed as enzyme recovery activity at 0.1 times IC50 measured at 120 mins using diluted compound relative to control; assay type: tissue-based; set-up: scale not given: the % may be the effect or the level left; details: Erythrocyte
Cholinesterase [26] = molecular target: T3, Cholinesterase; assay: Pseudo-irreversible inhibition of human serum BChE assessed as enzyme recovery activity at IC50 using diluted compound relative to control; assay type: cell-free; set-up: scale not given: the % may be the effect or the level left
Cholinesterase [27] = molecular target: T3, Cholinesterase; assay: Pseudo-irreversible inhibition of human serum BChE assessed as enzyme recovery activity at 0.1 times IC50 using diluted compound relative to control; assay type: cell-free; set-up: scale not given: the % may be the effect or the level left
PC-12 [28] = assay: Neuroprotective activity against H2O2-induced cell injury in rat PC-12 cells assessed as increase in cell viability causing decrease in LDH content preincubated for 2 hrs followed by H2O2 addition and measured after 24 hrs by LDH assay; assay type: functional, cell-based; details: dose 5-10 µM, time 26.0 hrs
PC-12 [29] = assay: Neuroprotective activity against H2O2-induced cell injury in rat PC12 cells assessed as cell viability preincubated for 2 hrs followed by H2O2 addition and measured after 24 hrs by MTT assay (reference value: 53.8 %); assay type: functional; details: time 26 hrs
[30] = Inhibition of copper-induced amyloid beta (1 to 42) (unknown origin) aggregation at 25 uM by ThT fluorescence assay relative to control
[31] = Disaggregation of Copper-induced amyloid beta (1 to 42) (unknown origin) preformed fibrils at 25 uM by ThT fluorescence assay relative to control
[32] = Disaggregation of Copper-induced amyloid beta (1 to 42) (unknown origin) preformed fibrils measured after 48 hrs by TEM analysis
[33] = Inhibition of copper-induced amyloid beta (1 to 42) (unknown origin) aggregation measured after 24 hrs by TEM analysis
Danio rerio [34] = species on record: Danio rerio; assay: Antialzheimer activity against 3 dpf zebrafish model of AlCl3-induced AD assessed as efficacy on motility distance at 8 uM relative to control; assay type: functional
Cholinesterase [35] = molecular target: T3, Cholinesterase; assay: Pseudo-irreversible inhibition of human serum BChE assessed as enzyme recovery activity at IC50 using undiluted compound relative to control; assay type: cell-free; set-up: scale not given: the % may be the effect or the level left
Danio rerio [36] = species on record: Danio rerio; assay: Antialzheimer activity against 3 dpf zebrafish model of AlCl3-induced AD assessed as motility by measuring change in speed at 8 uM (reference value: 1.05 mm/s); assay type: functional
Danio rerio [37] = species on record: Danio rerio; assay: Antialzheimer activity against 3 dpf zebrafish model of AlCl3-induced AD assessed as change in motility distance at 8 uM (reference value: 5204 mm); assay type: functional
Danio rerio [38] = species on record: Danio rerio; assay: Antialzheimer activity against 3 dpf zebrafish model of AlCl3-induced AD assessed as efficacy on speed change at 8 uM relative to control; assay type: functional

SMILES	IC50 (Acetylcholinesterase [1])	Activity [2]	inhibition [3]	IC50 (Butyrylcholinesterase)	also measured
O=C(Oc1ccc(-c2cc(=O)c3c(O)cc(OC(=O)N4CCOCC4)cc3o2)cc1)N1CCOCC1	11.5 µM	1.1 equiv	71.5%	18.6 µM	–
O=C(Oc1ccc(-c2cc(=O)c3c(O)cc(OC(=O)N(c4ccccc4)c4ccccc4)cc3o2)cc1)N(c1ccccc1)c1ccccc1	31.9 µM	1 equiv	70.9%	37.6 µM	–
CN(C)C(=O)Oc1ccc(-c2cc(=O)c3c(O)cc(OC(=O)N(C)C)cc3o2)cc1	9.2 µM	1.1 equiv	79.2%	23.7 µM	–
CN(C)C(=O)Oc1ccc(-c2cc(=O)c3c(OC(=O)N(C)C)cc(OC(=O)N(C)C)cc3o2)cc1	8.3 µM	0.2 equiv	38.3%	23.1 µM	–
CON(C)C(=O)Oc1ccc(-c2cc(=O)c3c(OC(=O)N(C)OC)cc(OC(=O)N(C)OC)cc3o2)cc1	6 µM	0.2 equiv	36%	18.2 µM	IC50 (Acetylcholinesterase [4]): 12.7 µM; IC50 (Cholinesterase [5]): 24.3 µM
CCN(CC)C(=O)Oc1ccc(-c2cc(=O)c3c(O)cc(OC(=O)N(CC)CC)cc3o2)cc1	7.8 µM	1.2 equiv	77.8%	16.4 µM	–
O=c1cc(-c2ccc(O)cc2)oc2cc(O)cc(O)c12 [APIGENIN]	> 500 µM	5.2 equiv	–	> 500 µM	Papp at 100 ug/ml [6]: 16.8 nm/s
O=C(Oc1ccc(-c2cc(=O)c3c(OC(=O)N4CCOCC4)cc(OC(=O)N4CCOCC4)cc3o2)cc1)N1CCOCC1	10.2 µM	0.2 equiv	31.2%	23.8 µM	–
CCN(C)C(=O)Oc1ccc(-c2cc(=O)c3c(OC(=O)N(C)CC)cc(OC(=O)N(C)CC)cc3o2)cc1	5.1 µM	0.1 equiv	35.1%	16.2 µM	Activity [7]: Active; IC50 (Acetylcholinesterase [4]): 9.2 µM; viability at 72 h, 6.25 µM [8]: 98%; IC50 (Cholinesterase [5]): 19.5 µM; viability at 72 h, 12.5 µM [9]: 98.5%; Activity [10]: inactive; Activity [11]: inactive; Drug metabolism [12]: Metabolite_Detected; inhibition [13]: Active; Activity [14]: 40.6%; Activity [15]: inactive; viability at 72 h, 50 µM [16]: 69.2%; viability at 10 µM (L02): 62.7%; Papp at 100 ug/ml [6]: 192 nm/s; viability at 72 h, 25 µM [17]: 89.8%; Drug metabolism [18]: Metabolite_Detected; Activity [19]: inactive; Drug metabolism [20]: Metabolite_Detected; Activity (PC-12 [21]): Non-Toxic
CCN(C)C(=O)Oc1cccc([C@H](C)N(C)C)c1 [RIVASTIGMINE]	–	–	–	–	Activity (Cholinesterase [22]): 43.2%; Activity (Mus musculus [23]): inactive; Activity (Mus musculus [24]): 64.6%; Activity (Acetylcholinesterase [25]): 81.4%; Activity (Cholinesterase [26]): 58.3%; Activity (Cholinesterase [27]): 43.2%
CON(C)C(=O)Oc1ccc(-c2cc(=O)c3c(O)cc(OC(=O)N(C)OC)cc3o2)cc1	6.8 µM	1.1 equiv	76.8%	17.2 µM	IC50 (Acetylcholinesterase [4]): 10.2 µM; IC50 (Cholinesterase [5]): 22.6 µM
Cc1c(C)c2c(c(C)c1O)CCC(C)(C(=O)O)O2 (stereo not given) [TROLOX]	–	–	–	–	Activity (PC-12 [28]): Active; Activity (PC-12 [29]): 68.8%
COc1cc(/C=C/C(=O)CC(=O)/C=C/c2ccc(O)c(OC)c2)ccc1O	–	–	–	–	inhibition [30]: 53.6%; Activity [31]: 56.1%; Activity [32]: Active; inhibition [33]: Active
COc1cc2c(cc1OC)C(=O)C(CC1CCN(Cc3ccccc3)CC1)C2 (stereo not given) [DONEPEZIL]	–	–	–	–	Efficacy (Danio rerio [34]): 55%; Activity (Cholinesterase [35]): 49.6%; Activity (Danio rerio [36]): 1.91 millimeter/sec; Activity (Danio rerio [37]): 6361 mm; Efficacy (Danio rerio [38]): 66%; Activity (Cholinesterase [27]): 60.3%
O=C(Oc1ccc(-c2cc(=O)c3c(O)cc(OC(=O)N4CCCC4)cc3o2)cc1)N1CCCC1	13.7 µM	1.2 equiv	73.7%	26.9 µM	–
